Assay results published in ChEMBL document CHEMBL4406855, “Design, synthesis and biological evaluation of N-(3-(1H-tetrazol-1-yl)phenyl)isonicotinamide derivatives as novel xanthine oxidase inhibitors” (Eur J Med Chem, 2019).

Target: Xanthine dehydrogenase/oxidase (Bos taurus, UniProt P80457)
Experiment: Inhibition of bovine xanthine oxidase assessed as reduction in uric acid formation using xanthine as substrate preincubated for 10 mins followed by substrate addition measured at first 2 mins by spectrophotometric analysis

Sequence of Xanthine dehydrogenase/oxidase (P80457 whole entry): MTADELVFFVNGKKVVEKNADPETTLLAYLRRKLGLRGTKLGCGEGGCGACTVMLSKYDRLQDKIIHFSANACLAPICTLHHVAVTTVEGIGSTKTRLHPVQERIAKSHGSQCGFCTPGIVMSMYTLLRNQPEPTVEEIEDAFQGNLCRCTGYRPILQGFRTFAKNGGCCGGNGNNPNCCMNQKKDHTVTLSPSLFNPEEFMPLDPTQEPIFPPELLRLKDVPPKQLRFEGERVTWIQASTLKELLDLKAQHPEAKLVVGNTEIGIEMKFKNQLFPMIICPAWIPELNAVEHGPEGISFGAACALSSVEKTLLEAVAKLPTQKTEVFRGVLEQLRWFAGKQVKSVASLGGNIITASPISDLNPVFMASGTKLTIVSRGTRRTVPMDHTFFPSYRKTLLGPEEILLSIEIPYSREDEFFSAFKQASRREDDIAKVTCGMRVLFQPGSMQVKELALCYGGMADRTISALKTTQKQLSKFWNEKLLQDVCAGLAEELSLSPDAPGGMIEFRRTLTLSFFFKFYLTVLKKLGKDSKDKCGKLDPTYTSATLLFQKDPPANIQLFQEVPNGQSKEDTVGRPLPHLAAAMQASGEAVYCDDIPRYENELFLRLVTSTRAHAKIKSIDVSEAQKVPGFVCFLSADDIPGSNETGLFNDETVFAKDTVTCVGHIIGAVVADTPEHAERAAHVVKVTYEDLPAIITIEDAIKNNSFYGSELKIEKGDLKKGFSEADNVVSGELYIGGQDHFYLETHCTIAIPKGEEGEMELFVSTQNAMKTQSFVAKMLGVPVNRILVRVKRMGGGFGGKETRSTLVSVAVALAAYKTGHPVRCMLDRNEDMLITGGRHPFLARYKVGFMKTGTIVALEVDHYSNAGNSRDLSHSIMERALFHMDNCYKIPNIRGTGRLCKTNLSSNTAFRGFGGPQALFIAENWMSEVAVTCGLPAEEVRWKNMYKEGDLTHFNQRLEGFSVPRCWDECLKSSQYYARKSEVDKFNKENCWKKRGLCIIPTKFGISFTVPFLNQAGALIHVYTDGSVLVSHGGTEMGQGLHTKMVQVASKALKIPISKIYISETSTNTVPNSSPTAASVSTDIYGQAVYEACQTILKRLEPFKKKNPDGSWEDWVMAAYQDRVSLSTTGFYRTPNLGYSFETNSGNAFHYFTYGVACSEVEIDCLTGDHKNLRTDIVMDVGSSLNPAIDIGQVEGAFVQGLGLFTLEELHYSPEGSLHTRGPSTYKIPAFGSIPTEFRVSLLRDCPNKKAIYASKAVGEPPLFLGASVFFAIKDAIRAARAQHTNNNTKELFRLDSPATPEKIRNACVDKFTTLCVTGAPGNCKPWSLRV

Row | IC50 [nM] | Compound
1 | 312 | N#Cc1ccccc1COc1ccc(NC(=O)c2ccncc2)cc1C#N
2 | 21 | N#Cc1cc(-c2n[nH]c(-c3ccncc3)n2)ccn1 [TOPIROXOSTAT]
